Columns and labels:
[1] = test system: TREU 667 strain of T. b. brucei; test: Chronic CNS Model [Murine Stage 2 HAT]; assay type: in vivo; conditions: treated on Day 21 (10 mg/kg), negative control
Description: Mice were infected with 10,000 parasites of the TREU 667 strain of T. b. brucei. Twenty one days post-infection mice were treated with a dose of between 6 and 100 mg/kg of a compound of the invention, either BID or QD for 7 days intraperitoneally (IP) or orally (PO). Positive control mice were treated with Diminazene (10 mg/kg, IP) on Day 4 post-infection. Negative control mice were treated with Diminazene (10 mg/kg, PO) on Day 21. Since Diminazene is not able to penetrate the CNS, mice treated at Day 21 are not able to cure the infection. Starting 1 week after treatment, mice were checked for parasitemia by microscopic examination of smears prepared from tail vein blood. Parasite positive animals were immediately removed from the cages and euthanized. Animals were considered to be cured of a CNS infection if they were aparasitemic for at least 180 days after the end of the treatment period.

[2] = test system: LAB 110 Eatro strain of T. b. brucei; test: Acute Murine Model A [Murine Stage 1 HAT]; assay type: in vivo; conditions: for Mean Survival Days: mice infected with T. b. brucei, 10 mg/kg, BID, orally, 4 days
Description: Female Swiss Webster mice were inoculated with 250,000 parasites of the LAB 110 Eatro strain of T. b. brucei. 24 hrs post-infection, treatment was initiated by administration of a compound of the invention BID for 4 days with 20 mg/kg/dose (40 mg/kg/day) intraperitoneally (IP) or orally (PO), 5 mg/kg BID or 10 mg/kg BID orally (PO). 3 mice per group were treated with a particular compound of the invention. Mice were checked for parasitemia weekly by microscopic examination of smears prepared from tail vein blood. Animals remaining parasite free for more than 30 days beyond the end of the treatment period were considered cured. Control untreated animals typically succumbed to the infection within 4-5 days following i.p. inoculation with parasites. Mice were monitored for 30 days for survival. Pentamidine at 2 mg/kg IP was used as the positive control. After 10 days, 0% of the untreated mice were parasite free. After 10 days, 67% of mice treated PO with 10 mg/kg BID of N-(1-Hydroxy-3,4-dihydro-1H-benzo[c][1,2]oxaborinin-7-yl)-4-methoxy-benzamide (M19) were parasite free. After 30 days, 100% of mice treated PO with 10 mg/kg BID of 4-fluoro-N-(1-hydroxy-3,4-dihydro-1H-benzo[c][1,2]oxaborinin-7-yl)-2-trifluoromethyl-benzamide (M1) were parasite free.

P-gp (human MDR1) = test: in vitro; assay type: in vitro ADME, canine; conditions: dog, MDCK-MDR1; 3 μM test compound; without GF120918; read-out: MDCK-MCR1 Papp
Description: (§1) MDCK-MDR1 cells (Madin-Darby canine kidney cells transfected with the human MDR1 gene) (Dr. Piet Borst, NKI-AVL, Amsterdam, The Netherlands) were seeded at 300,000 cells per well onto microporous, polycarbonate membranes in 12 well Costar Transwell® plates (Corning, Corning, N.Y.). The medium was removed and replaced with fresh cell culture medium approximately 24 hours after plating. Cells attained confluency and were ready for use in the transport assay after 72 hours of incubation.
(§2) A stock solution of each compound was prepared in DMSO at a concentration of 10 mg/mL. Stock solutions were further diluted in DMSO to a concentration of 1 mM for use in the assay. The final assay concentration of test compound in each incubation mixture was 3 μM and the final concentration of DMSO was 0.3%.
(§3) Cell cultures were pre-incubated with Transport Medium (TM), consisting of Hanks Balanced Salt Solution (HBSS), 25 mM glucose, and 25 mM HEPES, with and without the known P-gp inhibitor GF120918 (2 μM final assay concentration), for 30-60 minutes prior to the addition of test and control compounds. Following the pre-incubation period, transepithelial electrical resistance (TEER) measurements were taken on each insert to insure the integrity of the monolayer. The range for TEER values was 45-85Ω·cm^2. Transport medium was removed. Fresh transport media (1.5 mL) with or without GF120918 was added to the basolateral chambers. Solutions of the test compound were diluted into TM and added to the appropriate wells in triplicate (400 μL/well) at a final concentration of 3 μM with and without GF120918. The final concentration of DMSO was 0.3%. Control compounds were tested in triplicate at a final concentration of 3 μM. Cell monolayers were incubated with shaking (160 rpm) at 37° C. with 5% CO2 in a humidified incubator for one hour. Following the incubation, all plates were removed from the incubator. Inserts were removed from the plates and TEER measurements were again taken on each insert prior to removing samples for analysis to ensure no degradation of the tight junctions during the assay. An aliquot was taken from each receiver and diluted 1:3 with organic solvent (methanol) to assess transport of each compound across the monolayer. An aliquot was taken from each donor and diluted 1:2 with organic solvent (methanol) and then again 1:50 with matrix (50% methanol/50% TM) to assess mass balance within the study. All samples were assayed for test compound concentrations by LC-MS/MS using electrospray ionization.

MDCK-MDR1 cells = test: in vitro; assay type: in vitro ADME, canine; conditions: 3 μM test compound
Description: as §1, §2, §3

SMILES | day by which all animals relapsed to exhibit blood parasitemia [1] | Mean Survival Days [2] | Papp at 1 h, 3 µM (P-gp (human MDR1)) | MDCK-MCR1 AQ (MDCK-MDR1 cells) | mice parasite free after 10 days ([2]; female Swiss Webster mice, PO 10 mg/kg BID for 4 days, after 10 days)
N=C(N)c1ccc(/N=N/Nc2ccc(C(=N)N)cc2)cc1 [Diminazene, reference compound] | ≤ 56 days |  |  |  | 
O=C(Nc1ccc2c(c1)B(O)OCC2)c1ccccc1Cl [M5, 2-Chloro-N-(1-hydroxy-3,4-dihydro-1H-benzo[c][1,2]oxaborinin-7-yl)-benzamide] |  | 7 days | 70.7 ×10⁻⁶ cm/s | 0.1 | 
O=C(Nc1ccc2c(c1)B(O)OCC2)c1ccccc1Br [M8, 2-Bromo-N-(1-hydroxy-3,4-dihydro-1H-benzo[c][1,2]oxaborinin-7-yl)-benzamide] |  | 5.6 days |  |  | 
CCc1ccc(C(=O)Nc2ccc3c(c2)B(O)OCC3)cc1 [M12, 4-Ethyl-N-(1-hydroxy-3,4-dihydro-1H-benzo[c][1,2]oxaborinin-7-yl)-benzamide] |  | 8 days | 80.3 ×10⁻⁶ cm/s | −0.04 | 
CC(C)(C)c1ccc(C(=O)Nc2ccc3c(c2)B(O)OCC3)cc1 [M14, 4-tert-Butyl-N-(1-hydroxy-3,4-dihydro-1H-benzo[c][1,2]oxaborinin-7-yl)-benzamide] |  | 3.6 days |  |  | 
O=C(Nc1ccc2c(c1)B(O)OCC2)c1ccccc1C(F)(F)F [M15, N-(1-Hydroxy-3,4-dihydro-1H-benzo[c][1,2]oxaborinin-7-yl)-2-trifluoromethyl-benzamide] |  | >30 days |  |  | 
COc1ccc(C(=O)Nc2ccc3c(c2)B(O)OCC3)cc1 [M19, N-(1-Hydroxy-3,4-dihydro-1H-benzo[c][1,2]oxaborinin-7-yl)-4-methoxybenzamide] |  | 9 days |  |  | 67%
O=C(Nc1ccc2c(c1)B(O)OCC2)c1ccc(Cl)cc1Cl [M27, 2,4-Dichloro-N-(1-hydroxy-3,4-dihydro-1H-benzo[c][1,2]oxaborinin-7-yl)-benzamide] |  | >30 days | 85.1 ×10⁻⁶ cm/s | −0.03 | 
O=C(Nc1ccc2c(c1)B(O)OCC2)c1ccc(Cl)cc1F [M29, 4-Chloro-2-fluoro-N-(1-hydroxy-3,4-dihydro-1H-benzo[c][1,2]oxaborinin-7-yl)-benzamide] |  | >30 days | 80.4 ×10⁻⁶ cm/s | −0.04 | 
COC(=O)c1ccc(C(=O)Nc2ccc3c(c2)B(O)OCC3)cc1 [M40, N-(1-Hydroxy-3,4-dihydro-1H-benzo[c][1,2]oxaborinin-7-yl)-terephthalamic acid methyl ester] |  | 4 days |  |  | 
O=S(=O)(Nc1ccc2c(c1)B(O)OCC2)c1ccc(Cl)cc1 [M43, 4-Chloro-N-(1-hydroxy-3,4-dihydro-1H-benzo[c][1,2]oxaborinin-7-yl)-benzenesulfonamide] |  |  | 64.9 ×10⁻⁶ cm/s | 0.05 | 
Cc1ccc(S(=O)(=O)Nc2ccc3c(c2)B(O)OCC3)cc1 [M46, N-(1-Hydroxy-3,4-dihydro-1H-benzo[c][1,2]oxaborinin-7-yl)-4-methylbenzenesulfonamide] |  | 5 days | 77.1 ×10⁻⁶ cm/s | 0.05 | 
CC(C)c1ccc(S(=O)(=O)Nc2ccc3c(c2)B(O)OCC3)cc1 [M47, N-(1-Hydroxy-3,4-dihydro-1H-benzo[c][1,2]oxaborinin-7-yl)-4-isopropyl-benzenesulfonamide] |  | 9 days | 64.8 ×10⁻⁶ cm/s | 0.04 | 
CC1(C)COB(O)c2cc(NC(=O)c3ccc(F)cc3C(F)(F)F)ccc21 [M51] |  | 3.6 days |  |  | 
